Like-named read-outs stand apart in the source and are kept apart here.
Legend:
[1] = target: T1, ALK (Homo sapiens, UniProt Q9UM73); test: ALK Kinase Assay (ELISA/TRF, PLC-γ substrate); type: biochemical; conditions: read-out: ALK Potency
T1 construct: host or cells: baculovirus expression system
In short: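 IC50 values derive from percent inhibition plotted against log10 compound concentration and fitted to a variable-slope sigmoidal equation. The underlying reaction used 30 ng/ml ALK acting on immobilized PLC-γ (10 μg/mL in TBS) at 37° C for 15 minutes, read with Eu-N1 PT66 antibody.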

[2] = target: T2, JAK2 (Homo sapiens, UniProt O60674); test: Recombinant Human JAK2 Kinase Assay (TRF); type: biochemical; conditions: read-out: JAK2 Potency
T2 construct: host or cells: baculovirus expression system
T2 sequence (O60674 whole entry): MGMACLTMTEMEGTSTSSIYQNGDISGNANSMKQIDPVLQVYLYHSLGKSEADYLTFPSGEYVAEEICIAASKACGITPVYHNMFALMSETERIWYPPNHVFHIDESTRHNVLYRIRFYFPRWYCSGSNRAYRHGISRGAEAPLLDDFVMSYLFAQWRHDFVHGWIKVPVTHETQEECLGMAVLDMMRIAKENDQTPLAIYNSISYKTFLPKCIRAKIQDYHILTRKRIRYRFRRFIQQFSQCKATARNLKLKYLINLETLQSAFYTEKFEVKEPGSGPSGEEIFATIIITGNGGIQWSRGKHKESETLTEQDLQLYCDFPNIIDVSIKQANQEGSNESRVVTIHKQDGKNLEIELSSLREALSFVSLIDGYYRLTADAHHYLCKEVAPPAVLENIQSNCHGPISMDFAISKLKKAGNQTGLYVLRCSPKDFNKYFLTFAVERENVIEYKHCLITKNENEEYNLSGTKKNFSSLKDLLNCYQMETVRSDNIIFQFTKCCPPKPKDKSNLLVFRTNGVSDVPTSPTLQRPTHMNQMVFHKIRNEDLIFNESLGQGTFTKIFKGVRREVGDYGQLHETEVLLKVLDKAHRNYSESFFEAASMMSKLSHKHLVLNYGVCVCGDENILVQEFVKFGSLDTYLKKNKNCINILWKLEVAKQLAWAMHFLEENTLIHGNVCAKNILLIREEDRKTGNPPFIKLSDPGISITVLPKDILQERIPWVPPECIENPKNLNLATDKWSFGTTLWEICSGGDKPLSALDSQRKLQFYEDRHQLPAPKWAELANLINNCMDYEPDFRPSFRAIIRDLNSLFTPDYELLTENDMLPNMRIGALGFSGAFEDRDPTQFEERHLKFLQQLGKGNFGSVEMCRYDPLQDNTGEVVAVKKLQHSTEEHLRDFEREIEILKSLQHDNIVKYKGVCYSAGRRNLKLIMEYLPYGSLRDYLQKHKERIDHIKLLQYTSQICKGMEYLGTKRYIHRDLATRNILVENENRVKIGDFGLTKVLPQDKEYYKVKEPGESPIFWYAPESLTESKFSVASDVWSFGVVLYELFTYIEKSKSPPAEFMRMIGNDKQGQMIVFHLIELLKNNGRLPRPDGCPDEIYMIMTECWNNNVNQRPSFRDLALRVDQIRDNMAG
In short: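 Kinase activity of baculovirus-expressed JAK2 is followed on a surface-immobilised biotinylated peptide, with the reaction run for 20 min at room temperature in buffer containing 0.2 μM ATP and manganese. Phosphorylation is read with Eu-N1 PY100 antibody.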

[3] = ALK kinase inhibition, 1 μM ATP
[4] = JAK2 kinase inhibition, 0.2 μM ATP

T1 sequence (Q9UM73 19-1620): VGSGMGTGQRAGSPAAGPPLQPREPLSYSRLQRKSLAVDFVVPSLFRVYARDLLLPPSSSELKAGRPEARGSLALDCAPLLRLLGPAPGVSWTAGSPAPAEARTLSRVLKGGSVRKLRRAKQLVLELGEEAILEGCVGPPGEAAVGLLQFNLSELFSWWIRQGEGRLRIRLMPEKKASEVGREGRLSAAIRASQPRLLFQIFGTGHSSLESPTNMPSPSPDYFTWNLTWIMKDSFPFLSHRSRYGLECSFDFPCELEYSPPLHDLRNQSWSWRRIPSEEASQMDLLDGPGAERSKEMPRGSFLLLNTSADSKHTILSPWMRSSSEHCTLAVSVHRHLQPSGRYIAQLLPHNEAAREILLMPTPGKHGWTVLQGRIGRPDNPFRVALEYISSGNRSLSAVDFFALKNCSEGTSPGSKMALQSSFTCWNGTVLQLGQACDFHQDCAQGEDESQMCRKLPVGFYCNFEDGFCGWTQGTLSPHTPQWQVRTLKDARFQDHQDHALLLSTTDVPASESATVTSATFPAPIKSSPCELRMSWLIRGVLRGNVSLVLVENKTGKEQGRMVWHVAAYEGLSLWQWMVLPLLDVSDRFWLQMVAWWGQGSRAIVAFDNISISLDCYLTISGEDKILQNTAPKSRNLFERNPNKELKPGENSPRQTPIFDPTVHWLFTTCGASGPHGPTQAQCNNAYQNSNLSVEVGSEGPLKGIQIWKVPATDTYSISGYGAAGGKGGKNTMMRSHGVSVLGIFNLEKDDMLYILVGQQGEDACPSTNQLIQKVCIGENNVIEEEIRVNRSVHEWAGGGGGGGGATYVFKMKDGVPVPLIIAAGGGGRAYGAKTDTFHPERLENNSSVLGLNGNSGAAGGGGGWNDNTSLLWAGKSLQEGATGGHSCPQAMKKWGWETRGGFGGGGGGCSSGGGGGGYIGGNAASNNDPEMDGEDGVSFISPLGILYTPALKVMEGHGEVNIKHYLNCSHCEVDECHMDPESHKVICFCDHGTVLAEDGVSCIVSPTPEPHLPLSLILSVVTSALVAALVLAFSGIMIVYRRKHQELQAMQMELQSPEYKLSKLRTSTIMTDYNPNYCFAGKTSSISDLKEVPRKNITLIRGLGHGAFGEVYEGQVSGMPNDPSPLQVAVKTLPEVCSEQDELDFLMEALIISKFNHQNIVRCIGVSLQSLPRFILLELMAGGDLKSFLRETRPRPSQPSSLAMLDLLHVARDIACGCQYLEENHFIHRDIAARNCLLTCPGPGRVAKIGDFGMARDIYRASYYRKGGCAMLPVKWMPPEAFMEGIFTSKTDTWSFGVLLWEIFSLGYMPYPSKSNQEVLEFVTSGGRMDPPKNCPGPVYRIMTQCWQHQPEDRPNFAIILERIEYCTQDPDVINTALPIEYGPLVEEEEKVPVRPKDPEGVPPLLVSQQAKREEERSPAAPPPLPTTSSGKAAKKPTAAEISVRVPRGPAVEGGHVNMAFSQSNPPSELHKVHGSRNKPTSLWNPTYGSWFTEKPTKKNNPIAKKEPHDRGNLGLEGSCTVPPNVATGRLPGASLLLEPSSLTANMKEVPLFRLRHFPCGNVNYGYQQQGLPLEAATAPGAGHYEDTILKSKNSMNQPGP

COc1cc(N2CCC(N3CCN(C)CC3)CC2)ccc1Nc1ncc2cc3ccccc3n2n1 [Example 262, {2-Methoxy-4-[4-(4-methyl-piperazin-1-yl)-piperidin-1-yl]-phenyl}-[1,2,4]triazino[1,6-a]indol-2-yl-amine]
IC50 ([1]; ALK Kinase Inhibition): 0.1 to 1 µM
IC50 ([2]; JAK2 Kinase Inhibition): 1 to 10 µM

CC(C)(C)NS(=O)(=O)c1cccc(-c2ccc3cnc(Nc4ccc(F)c(N5CCOCC5)c4)nn23)c1 [Example 1394, N-tert-Butyl-3-[2-(4-fluoro-3-morpholin-4-yl-phenylamino)-pyrrolo[2,1-f][1,2,4]triazin-7-yl]-benzenesulfonamide]
IC50 ([1]; ALK Kinase Inhibition): 0.1 to 1 µM
IC50 ([2]; JAK2 Kinase Inhibition): < 0.1 µM

COc1cc(N2CCC[C@@H](CN3CCN(C)CC3)C2)ccc1Nc1ncc2ccc(-c3ccccc3N(C)S(C)(=O)=O)n2n1 [Example 469, N-[2-(2-{2-Methoxy-4-[(S)-3-(4-methyl-piperazin-1-ylmethyl)-piperidin-1-yl]-phenylamino}-pyrrolo[2,1-f][1,2,4]triazin-7-yl)-phenyl]-N-methyl-methanesulfonamide]
IC50 ([1]; ALK Kinase Inhibition): < 0.1 µM
IC50 ([2]; JAK2 Kinase Inhibition): 0.1 to 1 µM

CN1CCN(c2ccc(Nc3ncc4ccc(-c5ccc(CNCCS(C)(=O)=O)cc5)n4n3)cc2)CC1 [Example 1208, (7-{4-[(2-Methanesulfonyl-ethylamino)-methyl]-phenyl}-pyrrolo[2,1-f][1,2,4]triazin-2-yl)-[4-(4-methyl-piperazin-1-yl)-phenyl]-amine]
IC50 [1, 3]: 0.1 to 1 µM
IC50 [2, 4]: < 0.1 µM

COc1cc(N2CCC(N3CCN(C)CC3)CC2)ccc1Nc1ncc2ccc(-c3ccc(Cl)nc3)n2n1 [Example 533, [7-(6-Chloro-pyridin-3-yl)-pyrrolo[2,1-f][1,2,4]triazin-2-yl]-{2-methoxy-4-[4-(4-methyl-piperazin-1-yl)-piperidin-1-yl]-phenyl}-amine]
IC50 [1, 3]: < 0.1 µM
IC50 [2, 4]: < 0.1 µM

COc1ccccc1-c1ccc2cnc(Nc3ccc(N4CCCC(CN5CCN(C)CC5)C4)cc3)nn12 (centres unmarked) [Example 456, [7-(2-Methoxy-phenyl)-pyrrolo[2,1-f][1,2,4]triazin-2-yl]-{4-[3-(4-methyl-piperazin-1-ylmethyl)-piperidin-1-yl]-phenyl}-amine]
IC50 ([1]; ALK Kinase Inhibition): < 0.1 µM
IC50 ([2]; JAK2 Kinase Inhibition): < 0.1 µM

COCCN1CCc2ccc(Nc3ncc4ccc(-c5ccccc5)n4n3)cc2CC1 [Example 9, [3-(2-Methoxy-ethyl)-2,3,4,5-tetrahydro-1H-benzo[d]azepin-7-yl]-(7-phenyl-pyrrolo[2,1-f][1,2,4]triazin-2-yl)-amine]
IC50 ([1]; ALK Kinase Inhibition): < 0.1 µM
IC50 ([2]; JAK2 Kinase Inhibition): < 0.1 µM

COc1cc(C(=O)N2CCN(C)CC2)ccc1Nc1ncc2ccc(-c3ccccc3N(C)S(C)(=O)=O)n2n1 [Example 490, N-(2-{2-[2-Methoxy-4-(4-methyl-piperazine-1-carbonyl)-phenylamino]-pyrrolo[2,1-f][1,2,4]triazin-7-yl}-phenyl)-N-methyl-methanesulfonamide]
IC50 [1, 3]: 0.1 to 1 µM
IC50 [2, 4]: 1 to 10 µM

COc1ccc(-c2ccc3cnc(Nc4cccc(N)c4)nn23)cn1 [Example 898, N-[7-(6-Methoxy-pyridin-3-yl)-pyrrolo[2,1-f][1,2,4]triazin-2-yl]-benzene-1,3-diamine]
IC50 [1, 3]: 1 to 10 µM
IC50 [2, 4]: < 0.1 µM

CN1CCN(c2ccc(Nc3ncc4ccc(-c5cccc(S(C)(=O)=O)c5)n4n3)cn2)CC1 [Example 1123, [7-(3-Methanesulfonyl-phenyl)-pyrrolo[2,1-f][1,2,4]triazin-2-yl]-[6-(4-methyl-piperazin-1-yl)-pyridin-3-yl]-amine]
IC50 [1, 3]: 0.1 to 1 µM
IC50 [2, 4]: < 0.1 µM

CN1CCN(c2ccc(Nc3ncc4ccc(-c5cccc(N6CCNCC6)c5)n4n3)cc2)CC1 [Example 1169, [4-(4-Methyl-piperazin-1-yl)-phenyl]-[7-(3-piperazin-1-yl-phenyl)-pyrrolo[2,1-f][1,2,4]triazin-2-yl]-amine]
IC50 [1, 3]: 0.1 to 1 µM
IC50 [2, 4]: < 0.1 µM

CN1CCN(c2ccc(Nc3ncc4ccc(-c5ccc(S(C)(=O)=O)cc5)n4n3)cn2)CC1 [Example 1110, [7-(4-Methanesulfonyl-phenyl)-pyrrolo[2,1-f][1,2,4]triazin-2-yl]-[6-(4-methyl-piperazin-1-yl)-pyridin-3-yl]-amine]
IC50 [1, 3]: 0.1 to 1 µM
IC50 [2, 4]: < 0.1 µM

COc1cc(N2CCN(C[C@H](C)O)CC2)c(F)cc1Nc1ncc2ccc(-c3ccccc3N(C)S(C)(=O)=O)n2n1 [Example 1479, N-[2-(2-{5-Fluoro-4-[4-((S)-2-hydroxy-propyl)-piperazin-1-yl]-2-methoxy-phenylamino}-pyrrolo[2,1-f][1,2,4]triazin-7-yl)-phenyl]-N-methyl-methanesulfonamide]
IC50 ([1]; ALK Kinase Inhibition): < 0.1 µM
IC50 ([2]; JAK2 Kinase Inhibition): 0.1 to 1 µM

COc1cc(N2CCC(CN3CCN(C)CC3)CC2)ccc1Nc1ncc2ccc(-c3ccccc3N(C)S(C)(=O)=O)n2n1 [Example 467, N-[2-(2-{2-Methoxy-4-[4-(4-methyl-piperazin-1-ylmethyl)-piperidin-1-yl]-phenylamino}-pyrrolo[2,1-f][1,2,4]triazin-7-yl)-phenyl]-N-methyl-methanesulfonamide]
IC50 ([1]; ALK Kinase Inhibition): < 0.1 µM
IC50 ([2]; JAK2 Kinase Inhibition): 0.1 to 1 µM

CCN1CCOC(c2ccc(Nc3ncc4ccc(-c5cc(Cl)ccc5OC)n4n3)cc2)C1 (centres unmarked) [Example 253, [7-(5-Chloro-2-methoxy-phenyl)-pyrrolo[2,1-f][1,2,4]triazin-2-yl]-[4-(4-ethyl-morpholin-2-yl)-phenyl]-amine]
IC50 ([1]; ALK Kinase Inhibition): < 0.1 µM
IC50 ([2]; JAK2 Kinase Inhibition): < 0.1 µM

CS(=O)(=O)CCNC(=O)c1ccc(-c2ccc3cnc(Nc4ccc(N5CCOCC5)cc4)nn23)cc1 [Example 117, N-(2-Methanesulfonyl-ethyl)-4-[2-(4-morpholin-4-yl-phenylamino)-pyrrolo[2,1-f][1,2,4]triazin-7-yl]-benzamide]
IC50 ([1]; ALK Kinase Inhibition): 1 to 10 µM
IC50 ([2]; JAK2 Kinase Inhibition): < 0.1 µM

[7-(4-Methanesulfonyl-phenyl)-pyrrolo[2,1-f][1,2,4]triazin-2-yl]-(4-morpholin-4-yl-phenyl)-amine [Example 38]
IC50 ([1]; ALK Kinase Inhibition): 0.1 to 1 µM
IC50 ([2]; JAK2 Kinase Inhibition): < 0.1 µM

COc1cc(N2CCC(N3CCOCC3)C2)ccc1Nc1ncc2ccc(-c3ccccc3OC)n2n1 (racemic) [Example 779, (±)-[2-Methoxy-4-(3-morpholin-4-yl-pyrrolidin-1-yl)-phenyl]-[7-(2-methoxyphenyl)-pyrrolo[2,1-f][1,2,4]triazin-2-yl]-amine]
IC50 [1, 3]: 0.1 to 1 µM
IC50 [2, 4]: 0.1 to 1 µM

COc1ccccc1-c1ccc2cnc(Nc3ccc(C4CCN(C)CC4)c(C)c3)nn12 [Example 942, [7-(2-Methoxy-phenyl)-pyrrolo[2,1-f][1,2,4]triazin-2-yl]-[3-methyl-4-(1-methyl-piperidin-4-yl)-phenyl]-amine]
IC50 [1, 3]: < 0.1 µM
IC50 [2, 4]: < 0.1 µM

OC[C@@H](O)CN1CCC(c2ccc(Nc3ncc4ccc(-c5cccc(Cl)c5)n4n3)cc2)CC1 [Example 1130, (S)-3-(4-{4-[7-(3-Chloro-phenyl)-pyrrolo[2,1-f][1,2,4]triazin-2-ylamino]-phenyl}-piperidin-1-yl)-propane-1,2-diol]
IC50 [1, 3]: < 0.1 µM
IC50 [2, 4]: < 0.1 µM

CC(C)(C)NS(=O)(=O)c1cccc(-c2ccc3cnc(Nc4ccc(-c5cnco5)cc4)nn23)c1 [Example 1402, N-tert-Butyl-3-[2-(4-oxazol-5-yl-phenylamino)-pyrrolo[2,1-f][1,2,4]triazin-7-yl]-benzenesulfonamide]
IC50 ([1]; ALK Kinase Inhibition): 1 to 10 µM
IC50 ([2]; JAK2 Kinase Inhibition): < 0.1 µM

COc1ccc(Cl)cc1-c1ccc2cnc(Nc3ccc(C(C)(C)C)c(NC(C)=O)c3)nn12 [Example 306, N-{2-tert-Butyl-5-[7-(5-chloro-2-methoxy-phenyl)-pyrrolo[2,1-f][1,2,4]triazin-2-ylamino]-phenyl}-acetamide]
IC50 ([1]; ALK Kinase Inhibition): 0.1 to 1 µM
IC50 ([2]; JAK2 Kinase Inhibition): < 0.1 µM

CN1CCN(c2cccc(Nc3ncc4ccc(-c5cn[nH]c5)n4n3)c2)CC1 [Example 970, [3-(4-Methyl-piperazin-1-yl)-phenyl]-[7-(1H-pyrazol-4yl)-pyrrolo[2,1-f][1,2,4]triazin-2-yl]-amine]
IC50 [1, 3]: 0.1 to 1 µM
IC50 [2, 4]: < 0.1 µM

CS(=O)(=O)Nc1cccc(-c2ccc3cnc(Nc4ccc(F)c(N5CCOCC5)c4)nn23)c1 [Example 390, N-{3-[2-(4-Fluoro-3-morpholin-4-yl-phenylamino)-pyrrolo[2,1-f][1,2,4]triazin-7-yl]-phenyl}-methanesulfonamide]
IC50 ([1]; ALK Kinase Inhibition): 0.1 to 1 µM
IC50 ([2]; JAK2 Kinase Inhibition): < 0.1 µM

COc1cc([C@@]2(O)CCN(CCF)C[C@@H]2O)ccc1Nc1ncc2ccc(-c3ccccc3N(C)S(C)(=O)=O)n2n1 (racemic) [Example 845, (±)-N-[2-(2-{4-[(3S,4S)-1-(2-Fluoro-ethyl)-3,4-dihydroxy-piperidin-4-yl]-2-methoxy-phenylamino}-pyrrolo[2,1-f][1,2,4]triazin-7-yl)-phenyl]-N-methyl-methanesulfonamide]
IC50 [1, 3]: < 0.1 µM
IC50 [2, 4]: 0.1 to 1 µM

COc1cc(C2CCN(CC(N)=O)CC2)ccc1Nc1ncc2ccc(-c3ccccc3OC)n2n1 [Example 814, 2-(4-{3-Methoxy-4-[7-(2-methoxy-phenyl)-pyrrolo[2,1-f][1,2,4]triazin-2-ylamino]-phenyl}-piperidin-1-yl)-acetamide]
IC50 [1, 3]: < 0.1 µM
IC50 [2, 4]: 0.1 to 1 µM

COc1ccccc1NCc1ccc2cnc(Nc3ccc(N4CCOCC4)cc3)nn12 [Example 364, {7-[(2-Methoxy-phenylamino)-methyl]-pyrrolo[2,1-f][1,2,4]triazin-2-yl}-(4-morpholin-4-yl-phenyl)-amine]
IC50 ([1]; ALK Kinase Inhibition): > 10 µM
IC50 ([2]; JAK2 Kinase Inhibition): < 0.1 µM

CC(=O)Nc1cc(Nc2ncc3ccc(-c4cccnc4)n3n2)ccc1C(C)C [Example 304, N-[2-Isopropyl-5-(7-pyridin-3-yl-pyrrolo[2,1-f][1,2,4]triazin-2-ylamino)-phenyl]-acetamide]
IC50 ([1]; ALK Kinase Inhibition): 1 to 10 µM
IC50 ([2]; JAK2 Kinase Inhibition): < 0.1 µM

Source: patent US8471005B2 (Cephalon, Inc., priority 2008, dated 2013)
